Test results published in US8710065B2, “Tricyclic inhibitors of kinases” (AbbVie Inc., priority 2011, dated 2014).

What follows are compounds tested against T1, GST-tagged-Wee1 kinase (Homo sapiens, UniProt P30291) (assay: Wee1 time-resolved fluorescence equilibrium binding assay (displacement of Oregon Green-labeled ATP-competitive kinase probe)). Details: read-out: Wee-1 inhibition (Ki).
T1 construct: purchased Carnabio (Carna Biosciences) 05-177
Experimental: Wee1 kinase was assayed using a time-resolved fluorescence equilibrium binding assay monitoring displacement of a rapidly reversible Oregon Green-labeled ATP-competitive kinase probe (N-(2-(2-(2-(4-(4-(5-chloro-4-(2-(1-hydroxycyclobutyl)thiazol-5-yl)-1H-pyrrolo[2,3-b]pyridin-2-yl)phenyl)piperazin-1-yl)ethoxy)ethoxy)ethyl)-2′,7′-difluoro-3′,6′-dihydroxy-3-oxo-3H-spiro[isobenzofuran-1,9′-xanthene]-5-carboxamide) by competitive Wee1 inhibitors.
Table 1 depicts enzyme inhibition data (Ki) for exemplary compounds.

T1 sequence (P30291 whole entry): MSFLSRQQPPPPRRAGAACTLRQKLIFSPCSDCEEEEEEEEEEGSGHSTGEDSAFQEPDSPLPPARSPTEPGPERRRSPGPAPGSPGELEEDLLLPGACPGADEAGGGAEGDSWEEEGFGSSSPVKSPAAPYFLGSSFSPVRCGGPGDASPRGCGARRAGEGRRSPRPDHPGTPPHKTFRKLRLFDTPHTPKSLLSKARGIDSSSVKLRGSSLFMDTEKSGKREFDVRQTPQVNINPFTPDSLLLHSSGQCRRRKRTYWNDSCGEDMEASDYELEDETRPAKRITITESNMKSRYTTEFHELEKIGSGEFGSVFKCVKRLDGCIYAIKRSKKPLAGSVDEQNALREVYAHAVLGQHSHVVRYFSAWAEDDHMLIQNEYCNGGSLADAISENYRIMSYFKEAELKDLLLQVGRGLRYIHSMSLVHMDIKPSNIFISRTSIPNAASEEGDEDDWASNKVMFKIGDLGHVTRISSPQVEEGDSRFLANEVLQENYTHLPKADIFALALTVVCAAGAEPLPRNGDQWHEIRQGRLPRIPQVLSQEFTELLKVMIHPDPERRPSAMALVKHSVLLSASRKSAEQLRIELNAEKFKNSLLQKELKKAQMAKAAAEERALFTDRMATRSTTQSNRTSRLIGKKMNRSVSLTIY

SMILES | Ki [nM]
O=C(N[C@H]1CC[C@H](O)CC1)c1ccc(Nc2ncc3c(=O)n(-c4ccccc4Cl)c4nccn4c3n2)cc1 [Example 46, 4-{[6-(2-chlorophenyl)-5-oxo-5,6-dihydroimidazo[1,2-a]pyrimido[5,4-e]pyrimidin-2-yl]amino}-N-(trans-4-hydroxycyclohexyl)benzamide] | 10 to 100
CCNC(=O)c1ccc(Nc2ncc3c(=O)n(-c4ccccc4Cl)c4nccn4c3n2)cc1 [Example 47, 4-{[6-(2-chlorophenyl)-5-oxo-5,6-dihydroimidazo[1,2-a]pyrimido[5,4-e]pyrimidin-2-yl]amino}-N-ethylbenzamide] | 10 to 100
O=C(c1ccc(Nc2ncc3c(=O)n(-c4ccccc4Cl)c4nccn4c3n2)cc1)N1CCC(O)CC1 [Example 48, 6-(2-chlorophenyl)-2-({4-[(4-hydroxypiperidin-1-yl)carbonyl]phenyl}amino)imidazo[1,2-a]pyrimido[5,4-e]pyrimidin-5(6H)-one] | 10 to 100
O=C(Nc1ccncc1)c1ccc(Nc2ncc3c(=O)n(-c4ccccc4Cl)c4nccn4c3n2)cc1 [Example 49, 4-{[6-(2-chlorophenyl)-5-oxo-5,6-dihydroimidazo[1,2-a]pyrimido[5,4-e]pyrimidin-2-yl]amino}-N-(pyridin-4-yl)benzamide] | 10 to 100
CCN(CC)CCCOc1ccc(Nc2ncc3c(=O)n(-c4ccccc4Cl)c4nccn4c3n2)cc1F [Example 50, 6-(2-chlorophenyl)-2-({4-[3-(diethylamino)propoxy]-3-fluorophenyl}amino)imidazo[1,2-a]pyrimido[5,4-e]pyrimidin-5(6H)-one] | < 10
CN1CCN(CCOc2ccc(Nc3ncc4c(=O)n(-c5ccccc5Cl)c5nccn5c4n3)cc2F)CC1 [Example 51, 6-(2-chlorophenyl)-2-({3-fluoro-4-[2-(4-methylpiperazin-1-yl)ethoxy]phenyl}amino)imidazo[1,2-a]pyrimido[5,4-e]pyrimidin-5(6H)-one] | < 10
COCCN1CCc2ccc(Nc3ncc4c(=O)n(-c5ccccc5Cl)c5nccn5c4n3)cc2C1 [Example 52, 6-(2-chlorophenyl)-2-{[2-(2-methoxyethyl)-1,2,3,4-tetrahydroisoquinolin-7-yl]amino}imidazo[1,2-a]pyrimido[5,4-e]pyrimidin-5(6H)-one] | < 10
CN1Cc2cc(Nc3ncc4c(=O)n(-c5ccccc5Cl)c5nccn5c4n3)ccc2C(C)(C)C1 [Example 53, 6-(2-chlorophenyl)-2-[(2,4,4-trimethyl-1,2,3,4-tetrahydroisoquinolin-7-yl)amino]imidazo[1,2-a]pyrimido[5,4-e]pyrimidin-5(6H)-one] | < 10
Cc1c(O)cccc1-n1c(=O)c2cnc(Nc3ccccc3)nc2n2ccnc12 [Example 54, 6-(3-hydroxy-2-methylphenyl)-2-(phenylamino)imidazo[1,2-a]pyrimido[5,4-e]pyrimidin-5(6H)-one] | 10 to 100
CN1CCN(c2ccc(Nc3ncc4c(=O)n(-c5c(Cl)cccc5Cl)c5nccn5c4n3)cc2)CC1 [Example 55, 6-(2,6-dichlorophenyl)-2-{[4-(4-methylpiperazin-1-yl)phenyl]amino}imidazo[1,2-a]pyrimido[5,4-e]pyrimidin-5(6H)-one] | < 10

Second part, the compound after the results:

Ki [nM] | SMILES
10 to 100 | Nc1ccc(Nc2ncc3c(=O)n(-c4ccccc4Cl)c4nccn4c3n2)cc1 [Example 56, 2-[(4-aminophenyl)amino]-6-(2-chlorophenyl)imidazo[1,2-a]pyrimido[5,4-e]pyrimidin-5(6H)-one]
10 to 100 | CC(=O)Nc1ccc(Nc2ncc3c(=O)n(-c4ccccc4Cl)c4nccn4c3n2)cc1 [Example 57, N-(4-{[6-(2-chlorophenyl)-5-oxo-5,6-dihydroimidazo[1,2-a]pyrimido[5,4-e]pyrimidin-2-yl]amino}phenyl)acetamide]
10 to 100 | O=C(Nc1ccc(Nc2ncc3c(=O)n(-c4ccccc4Cl)c4nccn4c3n2)cc1)C1CCCC1 [Example 58, N-(4-{[6-(2-chlorophenyl)-5-oxo-5,6-dihydroimidazo[1,2-a]pyrimido[5,4-e]pyrimidin-2-yl]amino}phenyl)cyclopentanecarboxamide]
10 to 100 | O=C(Nc1ccc(Nc2ncc3c(=O)n(-c4ccccc4Cl)c4nccn4c3n2)cc1)C1CCC(O)CC1 (centres unmarked) [Example 59, N-(4-{[6-(2-chlorophenyl)-5-oxo-5,6-dihydroimidazo[1,2-a]pyrimido[5,4-e]pyrimidin-2-yl]amino}phenyl)-4-hydroxycyclohexanecarboxamide]
< 10 | CN1CCC(C(=O)Nc2ccc(Nc3ncc4c(=O)n(-c5ccccc5Cl)c5nccn5c4n3)cc2)CC1 [Example 60, N-(4-{[6-(2-chlorophenyl)-5-oxo-5,6-dihydroimidazo[1,2-a]pyrimido[5,4-e]pyrimidin-2-yl]amino}phenyl)-1-methylpiperidine-4-carboxamide]
< 10 | O=C(Nc1ccc(Nc2ncc3c(=O)n(-c4ccccc4Cl)c4nccn4c3n2)cc1)c1ccncc1 [Example 61, N-(4-{[6-(2-chlorophenyl)-5-oxo-5,6-dihydroimidazo[1,2-a]pyrimido[5,4-e]pyrimidin-2-yl]amino}phenyl)pyridine-4-carboxamide]
< 10 | Cc1cccc(C)c1-n1c(=O)c2cnc(Nc3ccc4c(c3)CN(C)CC43CC3)nc2n2ccnc12 [Example 62, 6-(2,6-dimethylphenyl)-2-[(2′-methyl-2′,3′-dihydro-1′H-spiro[cyclopropane-1,4′-isoquinolin]-7′-yl)amino]imidazo[1,2-a]pyrimido[5,4-e]pyrimidin-5(6H)-one]
10 to 100 | O=c1c2cnc(Nc3ccc(N4CCN(Cc5cccc(Cl)c5)CC4)cc3)nc2n2ccnc2n1-c1ccccc1Cl [Example 63, 2-({4-[4-(3-chlorobenzyl)piperazin-1-yl]phenyl}amino)-6-(2-chlorophenyl)imidazo[1,2-a]pyrimido[5,4-e]pyrimidin-5(6H)-one]
< 10 | COCCN1CCN(c2ccc(Nc3ncc4c(=O)n(-c5ccccc5Cl)c5nccn5c4n3)cc2)CC1 [Example 64, 6-(2-chlorophenyl)-2-({4-[4-(2-methoxyethyl)piperazin-1-yl]phenyl}amino)imidazo[1,2-a]pyrimido[5,4-e]pyrimidin-5(6H)-one]
< 10 | COc1cc(Nc2ncc3c(=O)n(-c4ccccc4Cl)c4nccn4c3n2)ccc1N1CCN(C)CC1 [Example 65, 6-(2-chlorophenyl)-2-{[3-methoxy-4-(4-methylpiperazin-1-yl)phenyl]amino}imidazo[1,2-a]pyrimido[5,4-e]pyrimidin-5(6H)-one]
< 10 | COc1cc(Nc2ncc3c(=O)n(-c4ccccc4Cl)c4nccn4c3n2)ccc1N1CCN(C(C)C)CC1 [Example 66, 6-(2-chlorophenyl)-2-({3-methoxy-4-[4-(propan-2-yl)piperazin-1-yl]phenyl}amino)imidazo[1,2-a]pyrimido[5,4-e]pyrimidin-5(6H)-one]
< 10 | COc1cc(Nc2ncc3c(=O)n(-c4ccccc4Cl)c4nccn4c3n2)ccc1OCCN1CCN(C)CC1 [Example 67, 6-(2-chlorophenyl)-2-({3-methoxy-4-[2-(4-methylpiperazin-1-yl)ethoxy]phenyl}amino)imidazo[1,2-a]pyrimido[5,4-e]pyrimidin-5(6H)-one]
10 to 100 | O=c1c2cnc(Nc3ccccc3)nc2n2ccnc2n1-c1cccc(O)c1 [Example 68, 6-(3-hydroxyphenyl)-2-(phenylamino)imidazo[1,2-a]pyrimido[5,4-e]pyrimidin-5(6H)-one]
